# According to patent publication US20050164323A1, “Methods of treating asthma” (Wyeth, priority 2003, published 2005):
# Entries after “also recorded” stand apart in the source; their conditions may differ. Non-standard residues stand in square brackets, D forms with d. Residues, ends and D or L forms follow the SMILES beside them. pS = N[C@@H](COP(=O)(O)O)C(=O)O
# Columns and labels:
# Format in all cases: biochemical
# PKC-θ KD [1] = target: T1, PKC-θ KD (Homo sapiens, UniProt Q04759); test: coupled PK/LDH assay: steady-state kinetics, product and dead-end inhibition of PKC-θ KD; conditions: for substrate inhibition: high peptide concentrations
# T1 construct: PKC-θ KD (amino acid residues 362 to 706) was cloned into a pET16b expression vector; hexa-histidine (C); Met-Gly (non-native N-terminal residues) (N); made in house; host or cells: E. coli BL21-DE3 (pET16b)
# T1 sequence (Q04759 with tags, fused parts or gaps): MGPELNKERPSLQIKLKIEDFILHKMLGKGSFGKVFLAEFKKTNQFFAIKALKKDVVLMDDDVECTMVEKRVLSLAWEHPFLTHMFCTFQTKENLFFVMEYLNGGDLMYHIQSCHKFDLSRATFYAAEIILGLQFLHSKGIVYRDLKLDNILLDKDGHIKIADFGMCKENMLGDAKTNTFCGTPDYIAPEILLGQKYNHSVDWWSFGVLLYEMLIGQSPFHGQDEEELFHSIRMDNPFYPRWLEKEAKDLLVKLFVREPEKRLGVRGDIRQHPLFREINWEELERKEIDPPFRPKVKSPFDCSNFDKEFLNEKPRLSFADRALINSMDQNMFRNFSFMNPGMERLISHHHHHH
# PKC-θ KD [2] = target: T1, PKC-θ KD; test: solvent viscosity studies (sucrose, Ficoll 400) on steady state kinetic parameters; conditions: from viscosity analysis
# Method: Next, solvent viscosity studies were performed. Steady state kinetic parameters were determined in the buffer described above for the enzyme kinetics assays containing varied sucrose (0-35%) or Ficoll 400 (0-8%). Relative solvent viscosities (η^ref) were determined in triplicate relative to 25 mM HEPES pH 7.5, 10 mM MgCl2, 2 mM DTT and 100 mM NaCl at 25° C. using an Ostwald viscometer. Buffer with no viscogen is indicated with a superscript of 0. The coupling enzyme system was unaffected by the presence of these viscogens. Thio effect studies with ATPγS and product inhibition studies with ADP were analyzed on a Hewlett Packard series 1100 HPLC using a Phenomenex Auga […] C18 124 A^0 50 mm×4.60 […] column (00B-4299-E0). Phosphorylated peptide was separated from non-phosphorylated peptide using a gradient of 0% to 100% 20 mM phosphate pH 8.8/acetonitrile (50/50). The fluorescein-labeled peptide was detected by excitation at 485 nm and monitoring the fluorescence emission at 530 nm.
# To determine if the chemical step is the lone contributor to the rate of the reaction, the effect of solvent viscosity on the steady state kinetic parameters for PKC-θ was determined. Two types of viscogens were employed in this study, the microviscogen sucrose and the macroviscogen Ficoll-400. […]
# PKC-θ KD [3] = target: T1, PKC-θ KD; test: HPLC assay: thio effect with ATPγS and product inhibition with ADP; conditions: for pattern / Ki: product inhibition; for appKm / rate: peptide1 used in assay
# [4] = varied peptide substrate, saturating ATP
# [5] = substrate inhibition, fit to equation (2), saturating ATP, read-out: Ki peptide
# [6] = varied substrate peptide3, saturating ATP, 100 mM NaCl, read-out: Kis
# [7] = dead-end inhibition against peptide 1 at saturating ATP (AMP-PNP up to 2.0 mM)
# [8] = dead-end inhibition, varied substrate ATP, 100 mM NaCl
molecule,measurement,setting,value
"LKRSLSEM [peptide3, substrate derived from the phosphorylation site in serum response factor]",substrate inhibition,PKC-θ KD [1],not observed
same,appKm,PKC-θ KD [1]; [4],420 ± 21 µM
same,kcat,PKC-θ KD [1]; [4],21 ± 1 s⁻¹
same,appKm,"PKC-θ KD [1]; varied peptide substrate, saturating ATP, listed as Peptide 3",420 µM
same,stickiness of substrate,PKC-θ KD [2],not sticky
CC(C)C[C@H](NC(=O)[C@H](CO)NC(=O)CNC(=O)[C@H](CCCCN)NC(=O)[C@H](CCCNC(=N)N)NC(=O)[C@H](C)NC(=O)[C@H](Cc1ccccc1)NC(=O)[C@@H](N)CCCNC(=N)N)C(=O)N[C@@H](CCCNC(=N)N)C(=O)N[C@@H](CCC(N)=O)C(=O)N[C@@H](CCCCN)C(=O)N[C@@H](CC(N)=O)C(=O)N[C@H](C(=O)O)C(C)C [peptide2] (H-RFARKGSLRQKNV-OH; N-terminus and C-terminus assumed),substrate inhibition,PKC-θ KD [1],observed
same,Ki,PKC-θ KD [1]; [5],306 ± 57 µM
same,appKm,PKC-θ KD [1]; [4],4.3 ± 0.8 µM
same,appKm,"PKC-θ KD [1]; varied peptide substrate, saturating ATP, listed as peptide 2",4.3 µM
CC(C)C[C@H](NC(=O)[C@H](COP(=O)(O)O)NC(=O)CNC(=O)[C@H](CCCCN)NC(=O)[C@H](CCCNC(=N)N)NC(=O)[C@H](C)NC(=O)[C@@H](N)Cc1ccccc1)C(=O)N[C@@H](CCCNC(=N)N)C(=O)N[C@@H](CCC(N)=O)C(=O)O [phosphopeptide1] (H-FARKG[pS]LRQ-OH),Ki,"PKC-θ KD [1]; varied substrate ATP, peptide3 held at 0.5 mM, 100 mM NaCl, read-out: Kii",1600 µM
same,Ki,"PKC-θ KD [1]; varied substrate peptide3, ATP held at 0.1 mM, 100 mM NaCl, read-out: Kii",2000 µM
same,Ki,"PKC-θ KD [1]; varied substrate peptide3, saturating ATP, 100 mM NaCl, read-out: Kii",1200 µM
same,Ki,PKC-θ KD [1]; [6],1700 µM
CC(C)C[C@H](NC(=O)[C@H](C)NC(=O)CNC(=O)[C@H](CCCCN)NC(=O)[C@H](CCCNC(=N)N)NC(=O)[C@H](C)NC(=O)[C@@H](N)Cc1ccccc1)C(=O)N[C@@H](CCCNC(=N)N)C(=O)N[C@@H](CCC(N)=O)C(=O)O [peptide5] (H-FARKGALRQ-OH; N-terminus and C-terminus assumed),inhibition pattern in words,PKC-θ KD [1]; against peptide 3 at saturating ATP,competitive inhibitor
same,inhibition pattern in words,"PKC-θ KD [1]; dead-end inhibition against ATP, listed as Peptide 5",uncompetitive inhibitor
same,inhibition pattern in words,"PKC-θ KD [1]; dead-end inhibition against ATP, listed as peptide 5",un-competitive
same,inhibition pattern in words,PKC-θ KD [1]; [7],competitive inhibitor
same,pattern,PKC-θ KD [1]; [8],"uc (uc, uncompetitive)"
same,Ki,"PKC-θ KD [1]; dead-end inhibition, varied substrate ATP, 100 mM NaCl, read-out: Kii",1100 µM
same,pattern,"PKC-θ KD [1]; dead-end inhibition, varied substrate peptide1, saturating ATP, 100 mM NaCl","c (c, competitive)"
same,Ki,"PKC-θ KD [1]; dead-end inhibition, varied substrate peptide1, saturating ATP, 100 mM NaCl, read-out: Kis",10 µM
same,pattern,"PKC-θ KD [1]; varied substrate peptide3, saturating ATP, 100 mM NaCl","c (c, competitive)"
same,Ki,PKC-θ KD [1]; [6],4.4 µM
Nc1ncnc2c1ncn2[C@@H]1O[C@H](COP(=O)(O)OP(=O)(O)O)[C@@H](O)[C@H]1O [ADP],inhibition pattern in words,PKC-θ KD [3]; against ATP at saturating peptide 1,competitive inhibitor; also recorded: competitive pattern
same,inhibition pattern in words,PKC-θ KD [3]; against peptide 1 at non-saturating ATP (0.1 mM),non-competitive pattern
same,inhibition pattern in words,PKC-θ KD [3]; against peptide 1 at saturating ATP,no inhibition observed
same,pattern,"PKC-θ KD [3]; varied substrate ATP, saturating peptide 1, 100 mM NaCl","c (c, competitive)"
same,Ki,"PKC-θ KD [3]; varied substrate ATP, saturating peptide 1, 100 mM NaCl, read-out: Kis",291 µM
same,pattern,"PKC-θ KD [3]; varied substrate peptide1, ATP held at 0.1 mM, 100 mM NaCl","nc (nc, noncompetitive)"
same,Ki,"PKC-θ KD [3]; varied substrate peptide1, ATP held at 0.1 mM, 100 mM NaCl, read-out: Kii",200 µM
same,Ki,"PKC-θ KD [3]; varied substrate peptide1, ATP held at 0.1 mM, 100 mM NaCl, read-out: Kis",494 µM
Nc1ncnc2c1ncn2[C@@H]1O[C@H](COP(=O)(O)OP(=O)(O)OP(O)(O)=S)[C@@H](O)[C@H]1O [ATPγS],ratio ATP/ATPγS of appKm,PKC-θ KD [3]; 100 mM NaCl,2.1
same,ratio ATP/ATPγS of rate (thio effect),PKC-θ KD [3]; 100 mM NaCl,112
same,appKm,PKC-θ KD [3]; 100 mM NaCl,120 ± 9 µM
same,rate,PKC-θ KD [3]; 100 mM NaCl,1.6 ± 0.1 peak area/(reaction time in minutes)([enzyme] nM)
same,ratio ATP/ATPγS of appKm,PKC-θ KD [3]; 250 mM NaCl,1.8
same,ratio ATP/ATPγS of rate (thio effect),PKC-θ KD [3]; 250 mM NaCl,146
same,appKm,PKC-θ KD [3]; 250 mM NaCl,130 ± 5 µM
same,rate,PKC-θ KD [3]; 250 mM NaCl,1.3 ± 0.1 peak area/(reaction time in minutes)([enzyme] nM)
"RTPKLARQASIELPSM [peptide4, substrate derived from the phosphorylation site in lymphocyte-specific protein-1]",substrate inhibition,PKC-θ KD [1],not observed
same,appKm,PKC-θ KD [1]; [4],240 ± 16 µM
same,kcat,PKC-θ KD [1]; [4],14 ± 1 s⁻¹
same,appKm,"PKC-θ KD [1]; varied peptide substrate, saturating ATP, listed as peptide 4",240 µM
"Nc1ncnc2c1ncn2[C@@H]1O[C@H](COP(=O)(O)OP(=O)(O)OP(=O)(O)O)[C@@H](O)[C@H]1O [ATP, adenosine triphosphate]",appKm ATP,"PKC-θ KD [1]; 0 mM NaCl, 0.2 mM peptide1",25 ± 5 µM
same,kcat,"PKC-θ KD [1]; 100 mM NaCl, fit to equation (1)",22 ± 1 s⁻¹
same,kcat,"PKC-θ KD [1]; 250 mM NaCl, fit to equation (1)",24 ± 1 s⁻¹
same,ATP hydrolysis slower in absence of peptide substrate than when peptide is present,PKC-θ KD [1]; no peptide vs peptide present,110 times
same,kcat,"PKC-θ KD [1]; varied ATP, peptide1 present",18 s⁻¹
CC(C)C[C@H](NC(=O)[C@H](CO)NC(=O)CNC(=O)[C@H](CCCCN)NC(=O)[C@H](CCCNC(=N)N)NC(=O)[C@H](C)NC(=O)[C@@H](N)Cc1ccccc1)C(=O)N[C@@H](CCCNC(=N)N)C(=O)N[C@@H](CCC(N)=O)C(=O)O [peptide1] (H-FARKGSLRQ-OH),Ki,"PKC-θ KD [1]; 0 mM NaCl, read-out: substrate inhibition",129 µM
same,Ki,"PKC-θ KD [1]; 50 mM NaCl, substrate inhibition, read-out: Ki peptide1",201 ± 85 µM
same,Ki,"PKC-θ KD [1]; 100 mM NaCl, substrate inhibition, read-out: Ki peptide1",> 2000 µM
same,Ki,PKC-θ KD [1]; [5],> 2000 µM
Nc1ncnc2c1ncn2[C@@H]1O[C@H](COP(=O)(O)OP(=O)(O)NP(=O)(O)O)[C@@H](O)[C@H]1O [AMP-PNP],inhibition pattern in words,PKC-θ KD [1]; dead-end inhibition against ATP,competitive inhibitor
same,inhibition pattern in words,PKC-θ KD [1]; [7],no observed inhibition
same,pattern,PKC-θ KD [1]; [8],"c (c, competitive)"
same,Ki,"PKC-θ KD [1]; dead-end inhibition, varied substrate ATP, 100 mM NaCl, read-out: Kis",228 µM
